Experiments:
Type in all cases: in vivo
Ambrosia elatior = experiment: Greenhouse postemergence herbicidal activity on AMBEL, 20 DAT
Method: (§1) For the post emergence treatment, the plants were first grown to the 2 leaf station (GS 12) and applied at GS 12-19 depending on the species. The herbicidal compositions were suspended or emulsified in water as distribution medium and sprayed using finely distributing nozzles.
(§2) The plants have been cultivated due to their individual requirements at 10 to 25° C. and. 20 to 35° C. The plants were irrigated due to their necessity.
(§3) The respective stated components A), were formulated as a 5% by weight strength emulsion concentrate containing wettol EM 31 20% and Cyclohexanone 80%. The respective stated components B), were formulated as either emulsifiable concentrates (EC), soluble liquids (SL), suspension concentrates (SC) or soluble granules (SG) as indicated in the table below. Component A, component B and the solvent system are introduced into the spray liquor used for applying the active compound. In the examples, the solvent used was water containing 1% Dash (Agnique ME 181 37.5%, Lutensit A-EP 22.5%, and Oleic Acid 5%) and 2% ammonium suflate.
(§4) In the following experiments, the herbicidal activity for the individual herbicide compounds (solo and mixture applications), the herbicidal succession was assessed 20 days after treatment (DAT). The evaluation for the damage on undesired weeds caused by the chemical compositions was carried out using a scale from 0 to 100%, compared to the untreated control plants. Here, 0 means no damage and 100 means complete destruction of the plants. The plants used in the greenhouse experiments belonged to the following species:
(§5) The value E, which corresponds to the effect (in %) that is to be expected if the activity of the individual compounds is additive, was calculated using the method of S. R. Colby (1967) “Calculating synergistic and antagonistic responses of herbicide combinations”, Weeds 15, p. 22 ff. Colby calculation for 2 way mixtures:
(§6) where: • X=effect in percent using herbicide A at an application rate a; • Y=effect in percent using herbicide B at an application rate b; • E=expected effect (in %) of A+B at application rates a+b
(§7) If the value observed in this manner is higher than the value E calculated according to Colby, a synergistic effect is present.

Polygonum convolvulus = experiment: Greenhouse postemergence herbicidal activity on POLCO, 20 DAT; details: for % activity, solo 2,4-D / % activity, solo MCPA: POLCO, postemergence, 20 DAT
Method: as §1, §2, §3, §4, §5, §6, §7

Amaranthus retroflexus = experiment: Greenhouse postemergence herbicidal activity on AMARE, 20 DAT
Method: as §1, §2, §3, §4, §5, §6, §7

Conyza canadiensis = experiment: Greenhouse postemergence herbicidal activity on ERICA, 20 DAT
Method: as §1, §2, §3, §4, §5, §6, §7

Polygonum persicaria = experiment: Greenhouse postemergence herbicidal activity on POLPE, 20 DAT; details: for % activity, solo 2,4-D / % activity, solo MCPA: postemergence, 20 DAT
Method: as §1, §2, §3, §4, §5, §6, §7

Stellaria media = experiment: Greenhouse postemergence herbicidal activity on STEME, 20 DAT
Method: as §1, §2, §3, §4, §5, §6, §7

Sorghum bicolor = experiment: Greenhouse postemergence herbicidal activity on SORVU, 20 DAT
Method: as §1, §2, §3, §4, §5, §6, §7

Abutilon theoprasti = experiment: Greenhouse postemergence herbicidal activity on ABUTH, 20 DAT; details: 20 DAT
Method: as §1, §2, §3, §4, §5, §6, §7

Chenopodium album = experiment: Greenhouse postemergence herbicidal activity on CHEAL, 20 DAT; details: 20 DAT
Method: as §1, §2, §3, §4, §5, §6, §7

Ipomoea hederacea = experiment: Greenhouse postemergence herbicidal activity on IPOHE, 20 DAT; details: 20 DAT
Method: as §1, §2, §3, §4, §5, §6, §7

Sinapis arvensis = experiment: Greenhouse postemergence herbicidal activity on SINAR, 20 DAT
Method: as §1, §2, §3, §4, §5, §6, §7

Kochia scoparia = experiment: Greenhouse postemergence herbicidal activity on KCHSC, 20 DAT; details: 20 DAT
Method: as §1, §2, §3, §4, §5, §6, §7

Galium aparine = experiment: Greenhouse postemergence herbicidal activity on GALAP, 20 DAT; details: Galium aparine, post-emergence, 480 h, 20 DAT, read-out: % activity, solo bromoxynil
Method: as §1, §2, §3, §4, §5, §6, §7

Amaranthus palmeri = experiment: Greenhouse postemergence herbicidal activity on AMAPA, 20 DAT; details: Amaranthus palmeri, post-emergence, 480 h, read-out: % activity, solo bromoxynil
Method: as §1, §2, §3, §4, §5, §6, §7

Polygonum aviculare = experiment: Greenhouse postemergence herbicidal activity on POLAV, 20 DAT
Method: as §1, §2, §3, §4, §5, §6, §7

Matricaria chamomilla = experiment: Greenhouse postemergence herbicidal activity on MATCH, 20 DAT; details: 20 DAT
Method: as §1, §2, §3, §4, §5, §6, §7

[1] = Ambrosia artemisiifolia, post-emergence, 480 h, read-out: % activity, solo metsulfuron
[2] = Fallopia convolvulus, post-emergence, 480 h, read-out: % activity, solo metsulfuron
[3] = Persicaria maculosa, post-emergence, 480 h, read-out: % activity, solo metsulfuron
[4] = Sorghum bicolor, post-emergence, 480 h, read-out: % activity, solo metsulfuron
[5] = STEME, 50 gai/ha, postemergence, 20 DAT
[6] = STEME, 100 gai/ha, postemergence, 20 DAT

SMILES: COc1nc(C)nc(=NC(=O)NS(=O)(=O)c2ccccc2C(=O)O)[nH]1 [metsulfuron, Metsulfuron]
- inhibition at 0.25 g/ha (Ambrosia elatior; [1]): 0%
- inhibition at 0.5 g/ha (Ambrosia elatior; [1]): 5%
- inhibition at 1 g/ha (Ambrosia elatior; [1]): 98%
- inhibition at 0.5 g/ha (Polygonum convolvulus; [2]): 70%
- inhibition at 1 g/ha (Polygonum convolvulus; [2]): 95%
- inhibition at 1 g/ha (Amaranthus retroflexus; Amaranthus retroflexus, post-emergence, 480 h, read-out: % activity, solo metsulfuron): 95%
- inhibition at 0.5 g/ha (Conyza canadiensis; Conyza, post-emergence, 480 h, read-out: % activity, solo metsulfuron): 90%
- inhibition at 0.5 g/ha (Polygonum persicaria; [3]): 95%
- inhibition at 1 g/ha (Polygonum persicaria; [3]): 95%
- inhibition at 0.25 g/ha (Stellaria media; Stellaria media, post-emergence, 480 h, read-out: % activity, solo metsulfuron): 98%
- inhibition at 0.5 g/ha (Sorghum bicolor; [4]): 20%
- inhibition at 1 g/ha (Sorghum bicolor; [4]): 35%

SMILES: N#Cc1cc(Br)c(O)c(Br)c1 [bromoxynil]
- inhibition at 10.5 g/ha (Abutilon theoprasti; Abutilon, post-emergence, 480 h, 10.5 gai/ha, read-out: % activity, solo bromoxynil): 68%
- inhibition at 62.5 g/ha (Abutilon theoprasti; Abutilon, post-emergence, 480 h, 62.5 gai/ha, read-out: % activity, solo bromoxynil): 73%
- inhibition at 125 g/ha (Abutilon theoprasti; Abutilon, post-emergence, 480 h, 125 gai/ha, read-out: % activity, solo bromoxynil): 90%
- inhibition at 250 g/ha (Abutilon theoprasti; Abutilon, post-emergence, 480 h, 250 gai/ha, read-out: % activity, solo bromoxynil): 90%
- inhibition at 10.5 g/ha (Amaranthus retroflexus; Amaranthus retroflexus, post-emergence, 480 h, AMARE, 10.5 gai/ha, postemergence, 20 DAT, read-out: % activity, solo bromoxynil): 28%
- inhibition at 125 g/ha (Amaranthus retroflexus; Amaranthus retroflexus, post-emergence, 480 h, AMARE, 125 gai/ha, postemergence, 20 DAT, read-out: % activity, solo bromoxynil): 80%
- inhibition at 250 g/ha (Amaranthus retroflexus; Amaranthus retroflexus, post-emergence, 480 h, AMARE, 250 gai/ha, postemergence, 20 DAT, read-out: % activity, solo bromoxynil): 92%
- inhibition at 10.5 g/ha (Chenopodium album; Chenopodium album, post-emergence, 480 h, 10.5 gai/ha, read-out: % activity, solo bromoxynil): 53%
- inhibition at 21 g/ha (Chenopodium album; Chenopodium album, post-emergence, 480 h, 21 gai/ha, read-out: % activity, solo bromoxynil): 80%
- inhibition at 62.5 g/ha (Chenopodium album; Chenopodium album, post-emergence, 480 h, 62.5 gai/ha, read-out: % activity, solo bromoxynil): 45%
- inhibition at 125 g/ha (Chenopodium album; Chenopodium album, post-emergence, 480 h, 125 gai/ha, read-out: % activity, solo bromoxynil): 85%
- inhibition at 250 g/ha (Chenopodium album; Chenopodium album, post-emergence, 480 h, 250 gai/ha, read-out: % activity, solo bromoxynil): 95%
- inhibition at 10.5 g/ha (Ipomoea hederacea; Ipomoea hederacea, post-emergence, 480 h, 10.5 gai/ha, read-out: % activity, solo bromoxynil): 65%
- inhibition at 21 g/ha (Ipomoea hederacea; Ipomoea hederacea, post-emergence, 480 h, 21 gai/ha, read-out: % activity, solo bromoxynil): 65%
- inhibition at 125 g/ha (Ipomoea hederacea; Ipomoea hederacea, post-emergence, 480 h, 125 gai/ha, read-out: % activity, solo bromoxynil): 72%
- inhibition at 62.5 g/ha (Stellaria media; Stellaria media, post-emergence, 480 h, STEME, 62.5 gai/ha, postemergence, 20 DAT, read-out: % activity, solo bromoxynil): 0%
- inhibition at 125 g/ha (Stellaria media; Stellaria media, post-emergence, 480 h, STEME, 125 gai/ha, postemergence, 20 DAT, read-out: % activity, solo bromoxynil): 0%
- inhibition at 250 g/ha (Stellaria media; Stellaria media, post-emergence, 480 h, STEME, 250 gai/ha, postemergence, 20 DAT, read-out: % activity, solo bromoxynil): 0%
- inhibition at 62.5 g/ha (Sinapis arvensis; Mutarda arvensis, post-emergence, 480 h, 62.5 gai/ha, read-out: % activity, solo bromoxynil): 70%
- inhibition at 250 g/ha (Sinapis arvensis; Mutarda arvensis, post-emergence, 480 h, 250 gai/ha, read-out: % activity, solo bromoxynil): 95%
- inhibition at 62.5 g/ha (Kochia scoparia; Bassia scoparia, post-emergence, 480 h, 62.5 gai/ha, read-out: % activity, solo bromoxynil): 50%
- inhibition at 62.5 g/ha (Galium aparine; 62.5 gai/ha): 89%
- inhibition at 125 g/ha (Galium aparine; 125 gai/ha): 70%
- inhibition at 10.5 g/ha (Amaranthus palmeri; 10.5 gai/ha): 58%
- inhibition at 62.5 g/ha (Amaranthus palmeri; 62.5 gai/ha): 83%

SMILES: O=C(O)COc1ccc(Cl)cc1Cl [2,4-D]
- % activity, solo 2,4-D (Abutilon theoprasti; 25 gai/ha): 50%
- % activity, solo 2,4-D (Abutilon theoprasti; 50 gai/ha): 80%
- % activity, solo 2,4-D (Abutilon theoprasti; 100 gai/ha): 90%
- % activity, solo 2,4-D (Ambrosia elatior; AMBEL, 25 gai/ha, postemergence, 20 DAT): 45%
- % activity, solo 2,4-D (Polygonum convolvulus; 25 gai/ha): 30%
- % activity, solo 2,4-D (Polygonum convolvulus; 50 gai/ha): 40%
- % activity, solo 2,4-D (Polygonum convolvulus; 100 gai/ha): 70%
- % activity, solo 2,4-D (Chenopodium album; 50 gai/ha): 90%
- % activity, solo 2,4-D (Chenopodium album; 100 gai/ha): 90%
- % activity, solo 2,4-D (Conyza canadiensis; ERICA, 25 gai/ha, postemergence, 20 DAT): 60%
- % activity, solo 2,4-D (Conyza canadiensis; ERICA, 100 gai/ha, postemergence, 20 DAT): 75%
- % activity, solo 2,4-D (Ipomoea hederacea; 25 gai/ha): 98%
- % activity, solo 2,4-D (Ipomoea hederacea; 100 gai/ha): 98%
- % activity, solo 2,4-D (Polygonum aviculare; 25 gai/ha): 10%
- % activity, solo 2,4-D (Polygonum aviculare; 50 gai/ha): 98%
- % activity, solo 2,4-D (Polygonum persicaria; POLPE, 25 gai/ha): 10%
- % activity, solo 2,4-D (Polygonum persicaria; POLPE, 50 gai/ha): 40%
- % activity, solo 2,4-D (Polygonum persicaria; POLPE, 100 gai/ha): 70%
- % activity, solo 2,4-D (Stellaria media; STEME, 25 gai/ha, postemergence, 20 DAT): 0%
- % activity, solo 2,4-D (Stellaria media; [5]): 0%
- % activity, solo 2,4-D (Stellaria media; [6]): 30%
- % activity, solo 2,4-D (Sinapis arvensis; 50 gai/ha): 80%
- % activity, solo 2,4-D (Kochia scoparia; 25 gai/ha): 90%

SMILES: Cc1cc(Cl)ccc1OCC(=O)O [MCPA]
- % activity, solo MCPA (Abutilon theoprasti; 50 gai/ha): 60%
- % activity, solo MCPA (Abutilon theoprasti; 200 gai/ha): 75%
- % activity, solo MCPA (Ambrosia elatior; AMBEL, 50 gai/ha, postemergence, 20 DAT): 65%
- % activity, solo MCPA (Ambrosia elatior; AMBEL, 100 gai/ha, postemergence, 20 DAT): 65%
- % activity, solo MCPA (Polygonum convolvulus; 50 gai/ha): 0%
- % activity, solo MCPA (Polygonum convolvulus; 100 gai/ha): 0%
- % activity, solo MCPA (Polygonum convolvulus; 200 gai/ha): 0%
- % activity, solo MCPA (Amaranthus retroflexus; AMARE, 50 gai/ha, postemergence, 20 DAT): 55%
- % activity, solo MCPA (Amaranthus retroflexus; AMARE, 100 gai/ha, postemergence, 20 DAT): 65%
- % activity, solo MCPA (Amaranthus retroflexus; AMARE, 200 gai/ha, postemergence, 20 DAT): 90%
- % activity, solo MCPA (Chenopodium album; 200 gai/ha): 90%
- % activity, solo MCPA (Conyza canadiensis; ERICA, 50 gai/ha, postemergence, 20 DAT): 60%
- % activity, solo MCPA (Ipomoea hederacea; 50 gai/ha): 98%
- % activity, solo MCPA (Ipomoea hederacea; 100 gai/ha): 98%
- % activity, solo MCPA (Ipomoea hederacea; 200 gai/ha): 98%
- % activity, solo MCPA (Matricaria chamomilla; 50 gai/ha): 20%
- % activity, solo MCPA (Matricaria chamomilla; 100 gai/ha): 30%
- % activity, solo MCPA (Polygonum aviculare; 50 gai/ha): 10%
- % activity, solo MCPA (Polygonum aviculare; 100 gai/ha): 70%
- % activity, solo MCPA (Polygonum aviculare; 200 gai/ha): 98%
- % activity, solo MCPA (Polygonum persicaria; POLPE, 50 gai/ha): 20%
- % activity, solo MCPA (Polygonum persicaria; POLPE, 200 gai/ha): 60%
- % activity, solo MCPA (Polygonum persicaria; POPLE, 100 gai/ha): 35%
- % activity, solo MCPA (Stellaria media; [5]): 0%
- % activity, solo MCPA (Stellaria media; [6]): 0%
- % activity, solo MCPA (Stellaria media; STEME, 200 gai/ha, postemergence, 20 DAT): 20%
- % activity, solo MCPA (Sorghum bicolor; SORVU, 200 gai/ha, postemergence, 20 DAT): 30%

From patent publication US20180343865A1, “HERBICIDAL COMPOSITIONS COMPRISING ISOXAZOLO[5,4-B]PYRIDINES” (BASF SE, priority 2015, published 2018)
